The test system of experiment [1] is Wnt activity (Sp5-Luc reporter in SW480 colon carcinoma cells). Kind of experiment: Wnt activity screening assay (Sp5-Luc reporter gene assay). The format is cell-based, human. To be noted: Sp5-Luc reporter, SW480 cells, 36 to 48 hours. Summed up:
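Compounds at 10 points (1:3 steps, top 10 μM, 0.1% DMSO final) were incubated 36 to 48 h at 37° C with stable Sp5-Luc SW480 reporter cells in 1% FBS medium. Luciferase luminescence was then read and expressed relative to DMSO-only cells. Four-parameter variable-slope fitting yielded EC50 values.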

In another experiment the target is GSK3β kinase (Homo sapiens (Human), UniProt P49841). Briefly: GSK3β kinase assay (Ser/Thr 09 peptide Z-lyte, FRET).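 Further: Coumarin/fluorescein emission ratio converted to percent phosphorylation against unphosphorylated (0%) and phosphorylated (100%) controls, 1 h compound incubation at room temperature, 11-point threefold dilutions from 10 µM, run in duplicate.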 It counts as biochemical. Particulars: method text calls the value IC50.
The test system of experiment [2] is Tau phosphorylation at Ser396 (pSer396), SH-SY5Y cells. Briefly: Tau phosphorylation at Ser396 (pSer396) in SH-SY5Y cells, ELISA/western blot.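 Further: cell lysates probed for reduced Tau pSer396 via ELISA (colorimetric) or western blot (chemiluminescence), both with one shared pSer396 antibody, EC50 for lowering phosphorylation.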 It counts as cell-based, human. To be noted: SH-SY5Y cells, overnight (16-18 h); read-out: pSer396 Tau EC50. For orientation: An ELISA detects its analyte on a solid surface through an enzyme-linked reagent.
The test system of experiment [3] is SW480 colon carcinoma cells. Kind of experiment: Cell viability assay (CellTiter-Glo) in SW480 cells.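 Further: SW480 cells stably carrying an Sp5-luciferase TCF/LEF reporter, luminescent ATP signal as viability measure, DMSO-treated cells as control.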 The format is cell-based, human. To be noted: cell viability, SW480 cells, four days, CellTiter-Glo. A general note: Cellular ATP, detected with luciferase, serves as a proxy for viable cell number.
Protocol: Representative compounds were screened using the assay procedure to assess the effect on cell viability as described below.
SW480 colon carcinoma cells were transduced with a lentiviral vector expressing luciferase with a human Sp5 promoter consisting of a sequence of eight TCF/LEF binding sites. SW480 cells stably expressing the Sp5-Luc reporter gene and a hygromycin resistance gene were selected by treatment with 150 μg/mL of hygromycin for 7 days. These stably transduced SW480 cells were expanded in cell culture and used for all further screening activities. Each compound was dissolved in DMSO as a 10 mM stock and used to prepare compound source plates.
For the Cell Viability Assays, the cells were plated at 2,000 cells/well in 384-well plates with a DMEM medium containing 1% fetal bovine serum, and 1% Penicillin-Streptomycin and incubated for four days hours at 37° C. and 5% CO2. Eight replicates of DMSO-treated cells served as controls and cells treated with compound were performed in duplicate.
After incubation, 10 μL of CellTiter-Glo (Promega) was added to each well allowed to incubate for approximately 12 minutes.
Dose-response curves were generated and EC50 concentration values were calculated using non-linear regression curve fit in the GraphPad Prism (San Diego, Calif.) or Dotmatics' Studies Software (Bishops Stortford, UK).
For experiment [4], the system named is LL29 cells (primary human fibroblasts derived from IPF patients), α-smooth muscle actin. Kind of experiment: Inhibition of fibrotic process: αSMA in TGF-β1-treated primary human fibroblasts from IPF patients (LL29 cells). It counts as cell-based. To be noted: % αSMA-positive LL29 cells, TGF-β1 20 ng/mL, 4 days. Summed up: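 Read-out is the percentage of αSMA-positive cells by high-content imaging, excluding SYTOX green-positive dead/apoptotic cells, normalized to TGF-β1-only wells on the same plate. LL29 cells were exposed for 4 days at 37 °C to 20 ng/mL TGF-β1 plus 11-point, 2-fold compound dilutions in 0.1% DMSO.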

A further experiment relates to IL-6. Briefly: IL-6 inhibition in LPS-stimulated human peripheral blood mononuclear cells (HTRF). It counts as cell-based. To be noted: IL-6, LPS-stimulated huPBMCs, HTRF. The gist of the method:
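EC50 from a 4-parameter fit of DMSO-normalized HTRF (665/620 nm) IL-6 signal, duplicates. Compound was added to fresh human PBMCs in 1% FBS RPMI for 2 h (top 10 μM, 3-fold, 0.25% DMSO) before 22 h stimulation with LPS at 50 ng/mL, 37 °C.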
A general note: TR-FRET usually uses a lanthanide donor and a delayed reading to cut background.

A further experiment concerns the target DYRK1A kinase (Homo sapiens (Human), UniProt Q13627). Briefly: DYRK1A kinase assay (Ser/Thr 18 peptide Z-lyte, FRET). Particulars: DYRK1A kinase; method text calls the value IC50.

pEC50: −log10 of the molar value.

Sequence of GSK3β kinase (P49841 whole entry): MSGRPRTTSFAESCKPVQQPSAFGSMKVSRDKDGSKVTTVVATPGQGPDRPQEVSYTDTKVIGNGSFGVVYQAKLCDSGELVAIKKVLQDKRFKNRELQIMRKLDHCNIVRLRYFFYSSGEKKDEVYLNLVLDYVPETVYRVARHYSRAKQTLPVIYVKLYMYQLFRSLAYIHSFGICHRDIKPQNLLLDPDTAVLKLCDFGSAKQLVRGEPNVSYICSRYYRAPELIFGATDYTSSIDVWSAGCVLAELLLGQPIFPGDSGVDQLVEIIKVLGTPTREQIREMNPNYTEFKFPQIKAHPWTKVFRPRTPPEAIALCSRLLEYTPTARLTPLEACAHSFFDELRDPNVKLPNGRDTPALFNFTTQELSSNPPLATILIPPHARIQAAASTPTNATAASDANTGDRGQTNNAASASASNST

For the substance “trans-N-(6-(2-methyloxazol-5-yl)isoquinolin-3-yl)-4-((propan-2-yl-1,1,1,3,3,3-d6)amino)cyclohexane-1-carboxamide [Compound 141]”, the pEC50 is 5.56 in experiment [1]; 7.30 on GSK3β kinase; 6.23 in experiment [2]; 5.80 in experiment [3]; 6.49 in experiment [4]; 6.41 with IL-6. The substance further showed a pEC50 at DYRK1A kinase of 8.05.

One may read the pEC50 as the negative decadic logarithm of the EC50, by convention in mol/L.
